Assay results: ChEMBL document CHEMBL4376805, “Plasmodium Purine Metabolism and Its Inhibition by Nucleoside and Nucleotide Analogues” (J Med Chem, 2019)

Experiments:
[1] = Inhibition of Plasmodium falciparum HGXPRT using Prib-PP as substrate by Hanes-plot based method
[2] = target: T1, Hypoxanthine-guanine phosphoribosyltransferase (Homo sapiens, UniProt P00492)
T1 sequence (P00492 whole entry): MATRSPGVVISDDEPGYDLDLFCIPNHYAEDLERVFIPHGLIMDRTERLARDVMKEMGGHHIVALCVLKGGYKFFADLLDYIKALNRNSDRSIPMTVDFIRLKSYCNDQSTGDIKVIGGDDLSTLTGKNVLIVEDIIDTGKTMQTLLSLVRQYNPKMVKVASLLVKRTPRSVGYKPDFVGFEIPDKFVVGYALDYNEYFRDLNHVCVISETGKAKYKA
Description: Inhibition of human HGPRT using Prib-PP as substrate by Hanes-plot based method

[3] = target: T2, Purine nucleoside phosphorylase (Homo sapiens, UniProt P00491); test: Inhibition of human PNP expressed in Escherichia coli assessed as reduction in uric acid formation by spectrophotometric method
T2 sequence (P00491 whole entry): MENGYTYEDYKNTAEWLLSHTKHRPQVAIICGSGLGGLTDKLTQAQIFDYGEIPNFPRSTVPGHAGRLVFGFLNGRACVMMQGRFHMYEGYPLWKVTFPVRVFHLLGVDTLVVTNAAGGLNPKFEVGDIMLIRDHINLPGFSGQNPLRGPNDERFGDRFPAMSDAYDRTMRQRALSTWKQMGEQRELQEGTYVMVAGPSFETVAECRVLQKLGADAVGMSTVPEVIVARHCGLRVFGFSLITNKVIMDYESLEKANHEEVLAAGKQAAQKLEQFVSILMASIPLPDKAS

[4] = tested on: Plasmodium falciparum; test: microbe, parasite or virus in culture; settings: 3D7
Description: Antimalarial activity against Plasmodium falciparum 3D7 infected in human erythrocytes assessed as reduction in [3H]ethanolamine incorporation incubated for 18 hrs followed by addition of [3H]ethanolamine and measured after 48 hrs by scintillation counting method

[5] = Inhibition of Plasmodium vivax HGPRT using Prib-PP as substrate by Hanes-plot based method
[6] = tested on: Plasmodium falciparum; test: Antimalarial activity against Plasmodium falciparum FCQ-27 isolate infected in erythrocytes assessed as reduction in [G-3H]Hypoxanthine incorporation incubated for 24 hrs followed by addition of [G-3H]Hypoxanthine and measured after 18 to 20 hrs by scintillation counting method; type: functional
[7] = tested on: Plasmodium falciparum; test: Antimalarial activity against Plasmodium falciparum; type: functional; settings: read-out: ID50 (the source's name)
[8] = Inhibition of Plasmodium falciparum N-terminal His6-tagged HGXPRT using Prib-PP as substrate by Hanes-plot based method
[9] = target: T1, Hypoxanthine-guanine phosphoribosyltransferase; test: Inhibition of human N-terminal His6-tagged HGPRT using Prib-PP as substrate by Hanes-plot based method
[10] = tested on: Plasmodium falciparum; test: Antimalarial activity against Plasmodium falciparum D6 assessed as reduction in parasite growth preincubated for 48 hrs followed by addition of [3H]Hypoxanthine and measured after 48 hrs by [3H]Hypoxanthine incorporation assay; type: functional, organism-based
[11] = tested on: Plasmodium falciparum; test: Antimalarial activity against chloroquine/ pyrimethamine-resitant Plasmodium falciparum W2 assessed as reduction in parasite growth preincubated for 48 hrs followed by addition of [3H]Hypoxanthine and measured after 48 hrs by [3H]Hypoxanthine incorporation assay; type: functional, organism-based
[12] = tested on: Plasmodium falciparum; test: Antimalarial activity against multi drug-resistant Plasmodium falciparum K1 assessed as reduction in parasite growth [3H]Hypoxanthine incorporation assay; type: functional; settings: read-out: ID50 (the source's name)
[13] = tested on: Plasmodium falciparum; test: Antimalarial activity against synchronized Plasmodium falciparum K1 ring form infected in human erythrocytes assessed as reduction in parasite growth after 72 hrs by Hoechst 33258 staining based fluorescence assay; type: functional, organism-based; settings: K1, 72 h
[14] = substrate: O=c1[nH]cnc2c1ncn2[C@@H]1O[C@H](CO)[C@@H](O)[C@H]1O; test: Binding affinity to human PNP assessed as catalytic rate by measuring uric acid formation
[15] = substrate: O=c1[nH]cnc2c1ncn2[C@@H]1O[C@H](CO)[C@@H](O)[C@H]1O; test: Binding affinity to Plasmodium falciparum His-tagged PNP assessed as catalytic rate by measuring uric acid formation

## O=c1[nH]c(=O)c2ncn(C[C@H](CO)n3cc(P(=O)(O)O)nn3)c2[nH]1
[1]
  Ki: 2 µM
[2]
  Ki: > 500 µM

## CSC[C@H]1N[C@@H](c2c[nH]c3c(=O)[nH]cnc23)[C@H](O)[C@@H]1O
[3]
  Ki: 0.303 µM
[4]
  IC50: 0.05 µM

## O=c1[nH]cnc2c1ncn2C[C@H](CO)n1cc(P(=O)(O)O)nn1
[5]
  Ki: > 100 µM
[1]
  Ki: 3 µM
[2]
  Ki: 8 µM

## NC(=O)c1cn([C@@H]2O[C@H](CO)[C@@H](O)[C@H]2O)c2ncnc(N)c12 [SANGIVAMYCIN]
[6]
  IC37: 0.3 µM
[7]
  IC50: 25 µM

## Nc1nc2c(ncn2C[C@@H](CO)n2cc(P(=O)(O)O)nn2)c(=O)[nH]1
[5]
  Ki: 2 µM
[1]
  Ki: 2 µM
[2]
  Ki: 0.4 µM

## CNc1ncnc2c1ncn2[C@H]1C[C@H](O)[C@@H](CO)O1
[6]
  IC37: 10 µM

## Nc1nc2c(nc(Br)n2C[C@@H](CO)OCCP(=O)(O)O)c(=O)[nH]1
[8]
  Ki: > 30 µM
[9]
  Ki: 13 µM

## CCOC(=O)[C@H](Cc1ccccc1)NP(=O)(CCO[C@H](CO)Cn1cnc2c(=O)[nH]c(N)nc21)N[C@@H](Cc1ccccc1)C(=O)OCC
[10]
  IC50: 22 to 70 µM
[11]
  IC50: 22 to 70 µM

## Nc1nc2c(ncn2[C@H]2CCN(C(=O)CP(=O)(O)O)C2)c(=O)[nH]1
[5]
  Ki: 2600 µM
[1]
  Ki: 400 µM
[2]
  Ki: 73000 µM

## Nc1nc(Cl)nc2c1ncn2[C@@H]1O[C@H](CO)[C@@H](O)[C@H]1O
[6]
  IC37: 11 µM

## COC(=O)[C@H](Cn1cnc2c(=O)[nH]cnc21)OCCP(=O)(O)O
[8]
  Ki: 1 µM
[9]
  Ki: 6 µM

## Nc1nc(SCc2ccc([N+](=O)[O-])cc2)c2ncn([C@@H]3O[C@H](CO)[C@@H](O)[C@H]3O)c2n1
[12]
  IC50: 4.5 µM

## O=c1[nH]cnc2c([C@@H]3N[C@H](CO)[C@@H](O)[C@H]3O)c[nH]c12 [FORODESINE]
[4]
  IC50: 0.063 µM

## CCOC(=O)[C@H](Cc1ccccc1)NP(N)(=O)CCO[C@H](CO)Cn1cnc2c(=O)[nH]cnc21 (stereo not given in full)
[10]
  IC50: > 250 µM
[11]
  IC50: > 250 µM

## Nc1ncnc2c1ncn2[C@H]1O[C@@H](CO)[C@H](OP(=O)(O)OC[C@H]2O[C@@H](n3cc(F)c(=O)[nH]c3=O)C[C@@H]2O)[C@@H]1O
[7]
  IC50: 4 µM

## CC(C)(C)C(=O)OCOP(=O)(COCCn1cnc2c(N)ncnc21)OCOC(=O)C(C)(C)C [ADEFOVIR DIPIVOXIL]
[13]
  IC50: 37.3 µM

## Nc1ncnc2c1ncn2CCOCP(=O)(O)O [ADEFOVIR]
[13]
  IC50: > 250 µM

## Nc1ncnc2c1ncn2C[C@H](CO)OCP(=O)(O)O
[13]
  IC50: 6 µM

## O=C(CCP(=O)(O)O)N1C[C@@H](n2cnc3c(O)ncnc32)[C@H](OC[C@@H](O)P(=O)(O)O)C1
[5]
  Ki: 0.006 µM
[1]
  Ki: 0.002 µM

B1: Purine nucleoside phosphorylase (Homo sapiens), P00491 (protein)
chain: T2 sequence (P00491 whole entry)
[14]
  kcat: 56 s⁻¹

B2: Purine nucleoside phosphorylase (Plasmodium falciparum), Q8T9Z7 (protein)
chain: MDNLLRHLKISKEQITPVVLVVGDPGRVDKIKVVCDSYVDLAYNREYKSVECHYKGQKFLCVSHGVGSAGCAVCFEELCQNGAKVIIRAGSCGSLQPDLIKRGDICICNAAVREDRVSHLLIHGDFPAVGDFDVYDTLNKCAQELNVPVFNGISVSSDMYYPNKIIPSRLEDYSKANAAVVEMELATLMVIGTLRKVKTGGILIVDGCPFKWDEGDFDNNLVPHQLENMIKIALGACAKLATKYA
[15]
  kcat: 0.34 s⁻¹
